In patent publication EP0563345B1, “NOVEL 4-ARYLPIPERAZINES AND 4-ARYLPIPERIDINES” (MCNEILAB, INC., priority 1991, dated 1993):
Structures can show the parent of a compound that is named as a salt. Where two headings read alike, the source gives them in different places.

Experiments:
[1] = biological target: T1, D-2 (dopamine-2) receptors (Rattus norvegicus, UniProt P61169); assay: biochemical; assay type: binding, male, Wistar rats; conditions: rat striatum P2 fraction, 3H-spiperone 0.05 nM; read-out: Receptor Binding (Ki nM) D2
T1 construct: The D2 assay employed a P2 fraction from the striatum, the ligand ^3H-spiperone at a concentration of 0.05 nM; from tissue; host or cells: rat striatum, P2 fraction (synaptosomal membranes), male Wistar rats
Procedure: The dopamine D2 binding activity of compounds was determined using a P2 fraction (synaptosomal membranes) prepared from male, Wistar rats.
The data from this assay were analyzed by calculating the percent inhibition of the binding of the tritiated ligands by given concentrations of the test compound. Kl values, where given, were obtained from the logit analysis of concentration-inhibition curves.

[2] = system: Male Charles-River rats; assay: Rat Glass Bead Test (propulsive motility of the distal colon); assay type: in vivo; conditions: mean expulsion time of glass bead
[3] = system: Male, Fischer 344 rats; assay: Block of Conditioned Avoidance Responding (Rat) test (CAR); conditions: for CAR 5 mg/kg IP Administration (% change CAR) / CAR 15 mg/kg IP Administration (% change CAR): negative number = blockade of CAR
Description: Apparatus: Rat operant chambers, housed within sound attenuated booths, both from Capden Instruments Ltd., were used in this test. The test chamber (8" H x […] D) is constructed of aluminum and plexiglass with floor grid bars of stainless-steel (1/8" O.D.) spaced 9/16" apart. A stainless-steel operation level 1-1/2" wide projects 3/4" into the chamber and is positioned 2-2/8" above the grid floor. The shock stimulus is delivered via the grid floor by a Coulbourn Instruments solid state module. The parameters of the test and the collection of data are controlled automatically.
The rats are trained for two weeks to approach criterion levels in the avoidance test (90% avoidance rate). One-hour training sessions are run at about the same time each day for four or five days a week. The training session consists of 120 trials, with the conditioned stimuli presented every 30 sec. A trial begins with presentation of the conditioned stimuli (a light and a tone). If the rat responds by depressing the operant lever during the 15-second presentation of the conditioned stimuli, the trial is terminated and the animal is credited with a CAR. Failure to respond during the conditioned stimuli causes the presentation of the unconditioned stimulus (UCS), a 0.7 mA shock which is accompanied by a light and tone for five seconds. If the rat depressed the lever within the ten-second period, the shock and trial are terminated and an escape response recorded. If the rat fails to depress the lever during the UCS (shock), the trial is terminated after ten seconds of shock and the absence of a response is scored as a failure to escape. Intertrial level presses have no effect. If a rat performs at the 90% CAR level for two weeks, it is then run twice a week on the test schedule (see below) until baseline performance stabilized.
Trained rats are run in a one-hour session on two consecutive days at the same time and in the same test chamber each day. The sessions consist of 60 trials, one every minute. The conditioned stimuli are presented for 15 sec (maximum) and the unconditioned stimuli five sec (maximum). On Day 1, a vehicle solution is administered to the rats at a time preceding the trial run corresponding to the pretreatment time for the test compound. The route of administration and the volume of vehicle are also matched to that of the test compound.
The percent change in CAR on the drug treatment day compared to vehicle pretreatment day is the key measure. The percent change (% change) in CAR is determined using the following formula: % change CAR = ((% CAR for Day 2/% CAR for Day 1) x 100)-100 [formula]
A negative number indicates a blockade of CAR, whereas a positive number would indicate increased CAR. The test results are reported as the mean % change for the group of rats. Failure to escape, a measure of the general sedative potential of the compound, was calculated for each animal as follows: % Failures = # of Failures to Escape/# of trials [formula]
The % failures, viz., loss of escape, is also reported as a group mean. Failures to escape are monitored closely and a session is terminated if ten failures occurred.
In the Tables and formulas therein, OiPr is isopropoxy, Me is methyl, MeO is methoxy, Et is ethyl, Ph is phenyl, n-Bu is normal butyl, cC6H11 is cyclohexyl, BOC is t-butyloxycarbonyl, Ac is acetyl, and NT is not tested in that partcular test. The escape loss numbers are shown at CAR 5 mg/kg unless otherwise noted.

[4] = system: male, Sprague-Dawley rats; assay: Catalepsy Test in Rats; conditions: 50 mg/kg IP
Procedure: The catalepsy test is taken to evaluate the liability of anti-psychotics to produce extra-pyramidal side effects.
The forepaws of male, Sprague-Dawley rats obtained from Charles River (170-240 g) were gently placed on a black cork (3.5 cm high) and the time until the forepaw was removed was recorded. Each rat was given three trials with a maximum time of 60 sec on the cork. The sum of the three trials was taken as the score for each rat. Percent catalepsy was defined as the percent of 180 sec (maximum time) that a rat permitted its forepaw to rest on the cork. […] In each test session, two control groups were used; animals treated with saline (or vehicle) served as a negative control and animals treated with haloperidol were a positive control.

[5] = system: apomorphine-induced emesis in the dog; assay: Block of Apomorphine-Induced Emesis In Dogs; assay type: in vivo; conditions: for ED50: Canis lupus familiaris, read-out: ED50 and 95% confidence limits, apomorphine HCl 1 mg/kg s.c.
Procedure: This latter test is used in the preclinical evaluation of antipsychotics, and it also implies that the compounds could be used clinically for the treatment of emesis.
This procedure was modified from that described in Janssen, P. A. J.; Niemegeers, C. J. E.; Schellekens, K. Arzn.-Forch. […] The animals were treated with a test dose of apomorphine HCI to produce retching, and the effectiveness of a test compound in blocking that retching is determined. […] Following one of several pretreatments, a challenge dose of 1 mg/kg apomorphine HCl s.c. was given and the number of retches that occurred during the following 20 min period was recorded. At the start of the series, and after one week on testing, all dogs were pretreated with saline before the challenge dose of apomorphine HCI was administered. All of the saline-pretreated animals retched. […] Data were analyzed to determine the ED50 dose for blocking apomorphine HCI-induced emesis.

[6] = intravenous (IV) administration
[7] = oral administration, 1 h pretreatment
[8] = oral administration, 4 h pretreatment

T1 sequence (P61169 whole entry): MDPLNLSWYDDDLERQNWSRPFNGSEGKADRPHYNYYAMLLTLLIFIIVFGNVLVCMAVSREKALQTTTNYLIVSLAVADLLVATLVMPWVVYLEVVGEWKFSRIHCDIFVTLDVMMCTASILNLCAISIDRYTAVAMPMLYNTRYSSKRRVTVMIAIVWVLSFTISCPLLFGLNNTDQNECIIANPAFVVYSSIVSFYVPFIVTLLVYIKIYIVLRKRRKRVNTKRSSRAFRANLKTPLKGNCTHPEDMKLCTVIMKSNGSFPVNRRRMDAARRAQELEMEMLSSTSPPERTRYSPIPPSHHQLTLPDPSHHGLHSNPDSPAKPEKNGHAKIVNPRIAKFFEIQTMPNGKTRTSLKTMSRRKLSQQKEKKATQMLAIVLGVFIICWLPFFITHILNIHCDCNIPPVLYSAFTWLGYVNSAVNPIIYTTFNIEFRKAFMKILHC

| SMILES | Ki [1] | Glass bead expulsion time ([2]; IP, 1.0 mg/kg) | CAR 5 mg/kg IP Administration (% change CAR) [3] | (Escape Loss) % failures to escape ([3]; at CAR 5 mg/kg IP) | also measured |
| --- | --- | --- | --- | --- | --- |
| CC(C)Oc1cc(F)ccc1N1CCN(Cc2cccc(C(=O)N3CCOCC3)c2)CC1 [Compound 80] | 79 nM | 14 min | -91% | 14% | Catalepsy (%) ([4]; Pre-Reaction Time 60 min): 84.8%; Catalepsy (%) ([4]; Pre-Reaction Time 240 min): 62.0% |
| O=C(CCCN1CCC(O)(c2ccc(Cl)cc2)CC1)c1ccc(F)cc1 [Haloperidol, haloperidol, reference compound] |  |  |  |  | ED50 [5, 6]: 0.023 mg/kg; ED50 [5, 7]: 0.088 mg/kg; ED50 [5, 8]: 0.028 mg/kg |
| O=C(c1cccc(CN2CCN(c3ccccc3C(F)(F)F)CC2)c1)N1CCCCC1 [Compound 88] | 281 nM | 29 min |  |  | CAR 15 mg/kg IP Administration (% change CAR) [3]: -60%; (Escape Loss) % failures to escape ([3]; at CAR 15 mg/kg IP): 7% |
| CC1CCN(C(=O)c2cccc(CN3CCN(c4ccccc4OC(C)C)CC3)c2)CC1 [Compound 58] | 9 nM | 29 min | -81% | 9% |  |
| CC(C)Oc1ccccc1N1CCN(Cc2cccc(S(=O)(=O)N3CCCCC3)c2)CC1 [Compound 105] | 18 nM |  | -7% | 0% | Glass bead expulsion time ([2]; PO, 10.0 mg/kg): 10 min |
| CC(C)Oc1ccccc1N1CCN(Cc2cccc(C(=O)N3CCCC(C)(C)C3)c2)CC1 [Compound 57] | 4.8 nM | 22 min | -86% | 25% |  |
| COc1ccccc1N1CCN(Cc2cccc(C(=O)N3CCCCCCC3=O)c2)CC1 [Compound 86] | 121 nM | 22 min |  |  | CAR 15 mg/kg IP Administration (% change CAR) [3]: -27%; (Escape Loss) % failures to escape ([3]; at CAR 15 mg/kg IP): 17% |
| CC(C)Oc1ccccc1N1CCN(Cc2cccc(C(=O)N3[C@H](C)CCC[C@@H]3C)c2)CC1 [Compound 59, 1-[3-[[4-[2-(1-Methylethoxy)phenyl]-1-piperazinyl]methyl]-benzoyl]-2,6-dimethylpiperidine hydrochloride (3:2)] | 7.2 nM | 43 min | -72% | 10% |  |
| COc1cc2c(cc1OC)CN(C(=O)c1cccc(CN3CCN(c4ccccc4OC(C)C)CC3)c1)CC2 [Compound 60] | 11 nM | 18 min |  |  | CAR 15 mg/kg IP Administration (% change CAR) [3]: -93%; (Escape Loss) % failures to escape ([3]; at CAR 15 mg/kg IP): 7% |
| CC(C)Oc1ccccc1N1CCN(Cc2cccc(C(=O)N3CCCCCC3)c2)CC1.Cl [Compound 54, Hexahydro-1-[3-[[4-[2-(1-methylethoxy)phenyl]-1-piperazinyl]methyl]-benzoyl]-1H-azepine monohydrochloride] |  | 16 min | -88% | 5% | ED50 [5, 6]: 0.019 mg/kg; ED50 [5, 7]: 0.047 mg/kg; ED50 [5, 8]: 0.251 mg/kg; inhibition of apomorphine-induced emesis in the dog ([5]; dog, in vivo): particularly potent inhibitors |
| CC(C)Oc1ccccc1N1CCN(Cc2cccc(C(=O)N3CCN(c4ccccc4)CC3)c2)CC1 [Compound 62] | 10.4 nM | 21 min | -28% | 23% |  |
| CC(C)Oc1ccccc1N1CCN(Cc2cccc(C(N)=O)c2)CC1 [Compound 77] | 46 nM | 12 min | -89% | 27% |  |
| CC(C)Oc1ccccc1C1CCN(Cc2cccc(C(=O)N3CCCCCC3)c2)CC1 [Compound 39] | 1.2 nM |  | -86% | 2% | Catalepsy (%) ([4]; Pre-Reaction Time 60 min): 17.3% |
| O=C(c1cccc(CN2CCN(c3ccccc3Cl)CC2)c1)N1CCCCCC1 [Compound 93] | 18 nM | 25 min | -23% | 0% | Catalepsy (%) ([4]; Pre-Reaction Time 60 min): 20.0%; Catalepsy (%) ([4]; Pre-Reaction Time 240 min): 1.9% |
| CC(C)Oc1ccccc1N1CCN(Cc2cccc(S(=O)(=O)N3CCCC(C)(C)C3)c2)CC1 [Compound 104] | 45 nM |  | -4% | 2% | Glass bead expulsion time ([2]; PO, 10.0 mg/kg): 50 min |
| CCCCN(C)C(=O)c1cccc(CN2CCN(c3ccccc3OC(C)C)CC2)c1 [Compound 70] | 15 nM | 14 min | -68% | 2% |  |
| CC(C)Oc1cc(F)ccc1N1CCN(Cc2cccc(C(=O)N3CCCCCC3)c2)CC1 [Compound 79] | 12 nM | 17 min | -86% | 44% |  |
| CC(C)Oc1ccccc1N1CCN(Cc2ccccc2C(=O)N2CCCCC2)CC1.Cl.Cl [Compound 111, 1-[2-[[4-[2-(1-Methylethoxy)phenyl]-1-piperazinyl]methyl]benzoyl]piperidine Dihydrochloride] |  | 11 min |  |  | Catalepsy (%) ([4]; Pre-Reaction Time 60 min): 52%; Catalepsy (%) ([4]; Pre-Reaction Time 240 min): 50.7% |
| COc1ccccc1N1CCN(Cc2cccc(C(=O)N3CCCCC3)c2)CC1 [Compound 84] | 29 nM | 42 min | -98% | 42% | Catalepsy (%) ([4]; Pre-Reaction Time 60 min): 18.8%; Catalepsy (%) ([4]; Pre-Reaction Time 240 min): 33.9% |
| CCOC(=O)N1CCN(C(=O)c2cccc(CN3CCN(c4ccccc4OC(C)C)CC3)c2)CC1 [Compound 63] | 121 nM | 41 min | -20% | 1% |  |
| CCCc1ccccc1N1CCN(Cc2cccc(C(=O)N3CCCCCC3)c2)CC1 [Compound 82] | 41 nM | 16 min |  |  | CAR 15 mg/kg IP Administration (% change CAR) [3]: -8%; (Escape Loss) % failures to escape ([3]; at CAR 15 mg/kg IP): 0% |
